Reference: patent US20210386709A1, “COMPOSITIONS AND METHODS FOR SUPPRESSING MSUT2” (United States Government As Represented By The Department …, priority 2020, published 2021)
Where “and” joins values, the source holds several entries; their conditions need not be identical. Equal entries are not always repeated.

What was measured:
[1] = biological target: T1, GST-MSUT2 (Homo sapiens, UniProt Q6PJT7); assay: Alpha Screen assay of biotinylated poly(A) RNA:GST-MSUT2 binding; details: by Alpha assay
T1 construct: Targeted construct consisted of the c-terminal end (dark blue and amino acids 601-736) of MSUT2; made in house; host or cells: E. coli BL21 (DE3)
T1 sequence (Q6PJT7 601-736): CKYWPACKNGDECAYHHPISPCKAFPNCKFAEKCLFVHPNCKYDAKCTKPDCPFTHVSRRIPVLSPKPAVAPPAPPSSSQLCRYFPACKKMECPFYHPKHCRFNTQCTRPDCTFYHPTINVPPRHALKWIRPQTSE
Description: (§1) Alpha Screen Assay. Samples were set up in 384 well Perkin Elmer white opaque-bottom plates (PE06). A total reaction volume of […] was plated in 384 format using a CyBio Well Vario (6 μL of donor beads (10 μg/mL), 3 μL biotinylated RNA (250 nM), 3 μL GST-MSUT2 protein (250 nM) per well). 50 nL of compounds were transferred to wells via CyBio Vario equipped with Pin Tool. This mixture was incubated at room temperature for 30 minutes away from light. Next 3 μL of acceptor beads (1.25 μg/mL) was added. Plates were incubated at room temperature away from light for 60 minutes and subsequently read on a Perkin Elmer EnVision multimode microplate reader equipped with stackers using a standard 384-well Alpha Assay software protocol.
Results. Alpha Screen design and underlying principle. Alpha Screen technology relies on donor beads, coated with a hydrogel excitable by 680 nm, brought within close proximity to an acceptor bead leading to light emission and detection. In this assay, streptavidin coated donor beads tightly bind to biotinylated-poly(A) RNA while the glutathione-coated acceptor bead binds to GST-tagged MSUT2 protein. […] When this interaction is blocked by an inhibitor, the proximity threshold for donor and acceptor beads is not met, singlet oxygen transference cannot occur, and light is not emitted by the acceptor bead (FIG. 1a).
Identification and validation of MSUT2 inhibitory compounds from NIHCC library. The single-point primary screen was conducted in duplicate and utilized the FP assay conditions determined herein (e.g., 125 nM MSUT2 RNABP and 10 nM FAM-RNA probe) with 10 μM library compounds added in a 96-well format. […] Compound specificity was empirically tested by counter screening against PABPN1, a regulator of the length of mRNA poly(A) tails (Apponi, L. H. et al. Hum Mol Genet 19, 1058-1065, (2010); and Benoit, B. et al. Dev Cell 9, 511-522, (2005)). IC50 of each of the previous 8 compounds was determined for PABPN1 using fluorescence polarization (FIG. 11), and a specificity ratio determined (Table 3). An Alpha Screen (AS) assay was developed as an orthogonal screen. Briefly, in this screen, biotinylated RNA binds streptavidin-coated donor beads, while GST-MSUT2 ZF binds glutathione-coated acceptor beads. […] Toxicity of these compounds in a HEK cell model was determined using a standard Promega Cell Titer Glo assay.
Alpha Screen Assay. […] The plate was then incubated again at room temperature away from light for 60 minutes and subsequently read on a Perkin Elmer EnSight multimode microplate reader using a standard 96-well Alpha Assay protocol.

[2] = biological target: T2, PABPN1 (Homo sapiens, UniProt Q86U42); assay: Alpha Screen selectivity screen against PABPN1; assay type: binding; details: Alpha Screen dose response IC50s
T2 construct: made in house; host or cells: E. coli BL21 (DE3)
T2 sequence (Q86U42 1-306): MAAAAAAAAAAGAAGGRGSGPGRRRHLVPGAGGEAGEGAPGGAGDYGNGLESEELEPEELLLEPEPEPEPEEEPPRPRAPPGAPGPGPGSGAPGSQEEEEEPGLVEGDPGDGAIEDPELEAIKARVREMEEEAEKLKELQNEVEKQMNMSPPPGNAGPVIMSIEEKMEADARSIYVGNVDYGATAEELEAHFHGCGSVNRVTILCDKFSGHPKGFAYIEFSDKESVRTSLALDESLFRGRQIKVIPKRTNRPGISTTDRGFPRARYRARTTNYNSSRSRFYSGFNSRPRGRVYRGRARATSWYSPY
Description: FIGS. 6A-B show the Selectivity screen. Compounds were screened by Alpha Screen (FIG. 6A) for MSUT2 and PABPN1 (FIG. 6B) dose response. IC50s indicated.
as §1
Screening of the Spectrum Collection. […] The hit window consisted of those compounds 7 standard deviations from the mean (FIG. 2a). In follow up dose-response testing, 11 of the 20 initial hits were validated and moved forward to further validation studies (FIG. 3). Unbound fluorescein-labeled RNA rapidly rotates in solution compared to MSUT2-bound. […] These four compounds were tested for an effect on cell viability using a HEK-cell model. […]

[3] = biological target: T3, Soluble epoxide hydrolase (gene EPXH2) (Homo sapiens, UniProt P34913); details: read-out: Ki (nM) for Known Target; cited from earlier work
T3 sequence (P34913 1-555): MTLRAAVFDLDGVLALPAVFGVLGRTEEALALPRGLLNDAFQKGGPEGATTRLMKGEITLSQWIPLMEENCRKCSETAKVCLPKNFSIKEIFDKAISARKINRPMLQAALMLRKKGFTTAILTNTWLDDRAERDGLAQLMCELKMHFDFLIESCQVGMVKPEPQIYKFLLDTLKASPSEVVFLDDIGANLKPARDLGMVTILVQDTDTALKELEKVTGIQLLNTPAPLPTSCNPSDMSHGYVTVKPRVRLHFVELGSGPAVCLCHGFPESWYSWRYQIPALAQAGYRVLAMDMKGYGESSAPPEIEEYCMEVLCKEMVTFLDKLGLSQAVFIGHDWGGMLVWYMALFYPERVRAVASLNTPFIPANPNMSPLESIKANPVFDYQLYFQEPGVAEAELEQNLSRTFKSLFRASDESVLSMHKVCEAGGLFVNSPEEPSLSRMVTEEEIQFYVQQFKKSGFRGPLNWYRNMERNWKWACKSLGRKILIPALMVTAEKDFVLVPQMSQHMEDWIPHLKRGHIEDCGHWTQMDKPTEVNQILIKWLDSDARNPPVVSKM

[4] = system: HEK-293 cells; assay: Cell viability, Promega Cell Titer Glo
Description: Cell culture and cytotoxicity screen. […] Cell viability was assessed as using Promega Cell Titer Glo (Promega G7570) per manufacturer protocol. Briefly, HEK-293 cells were grown to 70% confluence in a 96 well plate were treated with indicated concentrations of compounds and incubated for 72 hours at 37° C. Plates were read for luminescence on Perkin Elmer Enspire Alpha.
Cell viability was assessed. Briefly, HEK-293 cells grown to 70% confluence in a 96 well dish were treated with varying concentrations of compound (final concentration of 2% DMSO) and incubated for 72 hours. Next, Promega Cell Titer Glo assay was used to assess viability per manufacturer instructions (Promega G7570).

SMILES: O=c1c2ccccc2[se]n1-c1ccccc1 [Ebselen]
- Ki [1]: 1580 nM
- fold selectivity for MSUT2 over PABPN1 [2]: 5 fold and 4.6 fold
- Ki [3]: 0.55 nM
- toxicity (effect on cell viability) ([4]; HEK-293, 72 hours, indicated concentrations): did not show toxicity in a dose-dependent manner
- reduction of cell viability ([4]; HEK-293, at the tested doses, compared to DMSO control): roughly 40%
